Experimental data taken from patent US11267861B2, “Peptide-oligourea foldamer compounds and methods of their use” (UREKA SARL, priority 2016, dated 2022).
≈ marks a conversion by molar mass, not a printed value. Numbered stars: 1 amine (or outer) side, 2 acyl side, 3 side chain; on linkers, the order of the positions; unused ones are H or OH. Bridge positions count the residues as written; N and C are the ends. Square brackets hold non-standard residues; d marks the D form. Peptide text beside a SMILES is read from it. I, II: the chains in the order shown. X4 = NCCCC[C@@H](CNC(=O)[*:1])N[*:2]; Nle = CCCC[C@H](N)C(=O)O

Assays:
[1] = Solubility of glucagon analogs (UV absorbance); format: physicochemical; conditions: for solubility: 0.01M HCl solution adjusted to pH 7 with Na2HPO4, pH 7, pH adjusted to 7 with Na2HPO4, incubated overnight at 4° C.; for ratio (solubility relative to reference compound 16): relative to compound 16;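 on all read-outs here: peptide stock at 3 mg/ml in 0.01 M HCl, absorbance at 280 nm read before neutralization and again on the diluted supernatant after centrifugation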
Experimental: A solution of 3 mg/ml of glucagon (or analog) was prepared in a 0.01M HCl solution. Then 0.1 ml of the stock solution was diluted to 1 ml with HCl (0.01M) and the UV absorbance measured (to 280 nm) with nanodrop UV spectrometer. The pH of the remaining stock solution was adjusted to 7 using Na2HPO4, and the solution was incubated overnight at 4° C. The solution was then centrifuged three times (5 minutes, 4000 rotations per minute), 0.1 ml of the supernatant was removed and diluted to 1 ml with HCl solution (0.01M).
The final UV absorbance was measured.

human glucagon receptor = biological target: T1, human glucagon receptor (Homo sapiens, UniProt P47871); assay: Glucagon functional assay: agonist activity by cAMP production (HTRF) in transfected CHO cells; format: cell-based; conditions: cAMP production, transfected CHO cells, 10 minutes at 37° C.
T1 construct: expressed in transfected cells; host or cells: CHO cells
T1 sequence (P47871 26-477): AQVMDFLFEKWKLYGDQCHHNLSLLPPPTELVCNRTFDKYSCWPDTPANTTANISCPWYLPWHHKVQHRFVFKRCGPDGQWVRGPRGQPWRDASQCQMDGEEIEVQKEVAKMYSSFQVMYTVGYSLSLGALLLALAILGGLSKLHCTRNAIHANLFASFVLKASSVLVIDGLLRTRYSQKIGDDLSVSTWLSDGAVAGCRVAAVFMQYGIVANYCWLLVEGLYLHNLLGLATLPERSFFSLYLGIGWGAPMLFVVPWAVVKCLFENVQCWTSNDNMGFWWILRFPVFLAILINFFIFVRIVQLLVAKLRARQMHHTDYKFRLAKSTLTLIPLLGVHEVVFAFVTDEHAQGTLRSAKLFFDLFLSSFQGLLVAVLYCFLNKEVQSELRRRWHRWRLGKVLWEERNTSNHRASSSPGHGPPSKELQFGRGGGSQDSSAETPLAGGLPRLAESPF
Experimental: Functional Assay to Examine Bioactivity of Glucagon Receptor Agonists. Evaluation of the agonist activity of compounds at the human glucagon receptor expressed in transfected CHO cells was examined by measuring their effects on cAMP production using the HTRF detection method. […] For stimulated control measurement, separate assay wells contain 100 nM glucagon were utilized.
Following incubation, the cells were lysed and the fluorescence acceptor (D2-labeled cAMP) and fluorescence donor (anti-cAMP antibody labeled with europium cryptate) were added. […] The results are expressed as a percent of the control response to 100 nM glucagon. The standard reference agonist is glucagon, which was tested in each experiment at several concentrations to generate a concentration-response curve from which its EC50 value was calculated.
HTRF (Homogeneous Time-Resolved Fluorescence) principle. The HTRF technology is based on time resolved fluorescence energy transfer (TR-FRET), which occurs between long-lived fluorophore Europium or Terbium Cryptates, and EuK or Tb respectively, as a donor and the allophycocyanin XL665, d2 or Red as acceptor. Many compounds and proteins present in biological fluids or serum are naturally fluorescent, and the use of conventional, prompt fluorescence leads to serious limitations in assay sensitivity. The use of long-lived fluorophore combined with time-resolved detection (a delay between excitation and emission detection) minimizes prompt fluorescence interference.

Structure (SMILES) | solubility [1] | ratio (solubility relative to reference compound 16) [1] | EC50 (human glucagon receptor)
CCCC[C@H](NC(=O)[C@H](CC(C)C)NC(=O)NC[C@H](C)NC(=O)[C@H](CCC(N)=O)NC(=O)[C@@H](NC(=O)[C@H](Cc1ccccc1)NC(=O)[C@H](CC(=O)O)NC(=O)[C@H](CCC(N)=O)NC(=O)[C@H](C)NC(=O)[C@H](CCCNC(=N)N)NC(=O)[C@H](CCCNC(=N)N)NC(=O)[C@H](CO)NC(=O)[C@H](CC(=O)O)NC(=O)[C@H](CC(C)C)NC(=O)[C@H](Cc1ccc(O)cc1)NC(=O)[C@H](CCCCN)NC(=O)[C@H](CO)NC(=O)[C@H](Cc1ccc(O)cc1)NC(=O)[C@H](CC(=O)O)NC(=O)[C@H](CO)NC(=O)[C@@H](NC(=O)[C@H](Cc1ccccc1)NC(=O)[C@@H](NC(=O)CNC(=O)[C@H](CCC(N)=O)NC(=O)[C@H](CO)NC(=O)[C@@H](N)Cc1c[nH]cn1)[C@@H](C)O)[C@@H](C)O)C(C)C)C(=O)N[C@@H](CC(N)=O)C(=O)N[C@H](C(=O)O)[C@@H](C)O [Compound 57] | 970 µg/mL (≈ 287 µM) | 3.9 | 22 nM
CCCC[C@H](NC(=O)NC[C@H](C)NC(=O)[C@H](Cc1c[nH]c2ccccc12)NC(=O)[C@H](CCC(N)=O)NC(=O)[C@@H](NC(=O)[C@H](Cc1ccccc1)NC(=O)[C@H](CC(=O)O)NC(=O)[C@H](CCC(N)=O)NC(=O)[C@H](C)NC(=O)[C@H](CCCNC(=N)N)NC(=O)[C@H](CCCNC(=N)N)NC(=O)[C@H](CO)NC(=O)[C@H](CC(=O)O)NC(=O)[C@H](CC(C)C)NC(=O)[C@H](Cc1ccc(O)cc1)NC(=O)[C@H](CCCCN)NC(=O)[C@H](CO)NC(=O)[C@H](Cc1ccc(O)cc1)NC(=O)[C@H](CC(=O)O)NC(=O)[C@H](CO)NC(=O)[C@@H](NC(=O)[C@H](Cc1ccccc1)NC(=O)[C@@H](NC(=O)CNC(=O)[C@H](CCC(N)=O)NC(=O)[C@H](CO)NC(=O)[C@@H](N)Cc1c[nH]cn1)[C@@H](C)O)[C@@H](C)O)C(C)C)C(=O)N[C@@H](CC(N)=O)C(=O)N[C@H](C(=O)O)[C@@H](C)O [Compound 58] | 1510 µg/mL (≈ 437 µM) | 6.0 | 35 nM
CCCC[C@H](NC(=O)[C@H](CC(C)C)NC(=O)[C@H](Cc1c[nH]c2ccccc12)NC(=O)[C@H](CCC(N)=O)NC(=O)[C@@H](NC(=O)[C@H](Cc1ccccc1)NC(=O)[C@H](CC(=O)O)NC(=O)[C@H](CCC(N)=O)NC(=O)[C@H](C)NC(=O)[C@H](CCCNC(=N)N)NC(=O)[C@H](CCCNC(=N)N)NC(=O)[C@H](CO)NC(=O)[C@H](CC(=O)O)NC(=O)[C@H](CC(C)C)NC(=O)[C@H](Cc1ccc(O)cc1)NC(=O)NC[C@H](CCCCN)NC(=O)[C@H](CO)NC(=O)[C@H](Cc1ccc(O)cc1)NC(=O)[C@H](CC(=O)O)NC(=O)[C@H](CO)NC(=O)[C@@H](NC(=O)[C@H](Cc1ccccc1)NC(=O)[C@@H](NC(=O)CNC(=O)[C@H](CCC(N)=O)NC(=O)[C@H](CO)NC(=O)[C@@H](N)Cc1c[nH]cn1)[C@@H](C)O)[C@@H](C)O)C(C)C)C(=O)N[C@@H](CC(N)=O)C(=O)N[C@H](C(=O)O)[C@@H](C)O [Compound 59] (I: YLDSRRAQDFVQWL[Nle]NT-OH / II: H-HSQGTFTSDYS; linker I:N-II:C via X4; C-terminus assumed) | 720 µg/mL (≈ 206 µM) | 2.9 | 32 nM
CCCC[C@H](NC(=O)[C@H](CC(C)C)NC(=O)[C@H](Cc1c[nH]c2ccccc12)NC(=O)[C@H](CCC(N)=O)NC(=O)[C@@H](NC(=O)[C@H](Cc1ccccc1)NC(=O)[C@H](CC(=O)O)NC(=O)NC[C@H](CCC(N)=O)NC(=O)[C@H](C)NC(=O)[C@H](CCCNC(=N)N)NC(=O)[C@H](CCCNC(=N)N)NC(=O)[C@H](CO)NC(=O)[C@H](CC(=O)O)NC(=O)[C@H](CC(C)C)NC(=O)[C@H](Cc1ccc(O)cc1)NC(=O)[C@H](CCCCN)NC(=O)[C@H](CO)NC(=O)[C@H](Cc1ccc(O)cc1)NC(=O)[C@H](CC(=O)O)NC(=O)[C@H](CO)NC(=O)[C@@H](NC(=O)[C@H](Cc1ccccc1)NC(=O)[C@@H](NC(=O)CNC(=O)[C@H](CCC(N)=O)NC(=O)[C@H](CO)NC(=O)[C@@H](N)Cc1c[nH]cn1)[C@@H](C)O)[C@@H](C)O)C(C)C)C(=O)N[C@@H](CC(N)=O)C(=O)N[C@H](C(=O)O)[C@@H](C)O [Compound 60] | 830 µg/mL (≈ 238 µM) | 3.3 | 36 nM
CCCC[C@H](NC(=O)[C@H](CC(C)C)NC(=O)[C@H](Cc1c[nH]c2ccccc12)NC(=O)[C@H](CCC(N)=O)NC(=O)[C@@H](NC(=O)[C@H](Cc1ccccc1)NC(=O)NC[C@H](CC(=O)O)NC(=O)[C@H](CCC(N)=O)NC(=O)[C@H](C)NC(=O)[C@H](CCCNC(=N)N)NC(=O)[C@H](CCCNC(=N)N)NC(=O)[C@H](CO)NC(=O)[C@H](CC(=O)O)NC(=O)[C@H](CC(C)C)NC(=O)[C@H](Cc1ccc(O)cc1)NC(=O)[C@H](CCCCN)NC(=O)[C@H](CO)NC(=O)[C@H](Cc1ccc(O)cc1)NC(=O)[C@H](CC(=O)O)NC(=O)[C@H](CO)NC(=O)[C@@H](NC(=O)[C@H](Cc1ccccc1)NC(=O)[C@@H](NC(=O)CNC(=O)[C@H](CCC(N)=O)NC(=O)[C@H](CO)NC(=O)[C@@H](N)Cc1c[nH]cn1)[C@@H](C)O)[C@@H](C)O)C(C)C)C(=O)N[C@@H](CC(N)=O)C(=O)N[C@H](C(=O)O)[C@@H](C)O [Compound 61] | 740 µg/mL (≈ 212 µM) | 2.9 | 0.1 nM
CCCC[C@H](NC(=O)[C@H](CC(C)C)NC(=O)[C@H](Cc1c[nH]c2ccccc12)NC(=O)[C@H](CCC(N)=O)NC(=O)[C@@H](NC(=O)NC[C@H](Cc1ccccc1)NC(=O)[C@H](CC(=O)O)NC(=O)[C@H](CCC(N)=O)NC(=O)[C@H](C)NC(=O)[C@H](CCCNC(=N)N)NC(=O)[C@H](CCCNC(=N)N)NC(=O)[C@H](CO)NC(=O)[C@H](CC(=O)O)NC(=O)[C@H](CC(C)C)NC(=O)[C@H](Cc1ccc(O)cc1)NC(=O)[C@H](CCCCN)NC(=O)[C@H](CO)NC(=O)[C@H](Cc1ccc(O)cc1)NC(=O)[C@H](CC(=O)O)NC(=O)[C@H](CO)NC(=O)[C@@H](NC(=O)[C@H](Cc1ccccc1)NC(=O)[C@@H](NC(=O)CNC(=O)[C@H](CCC(N)=O)NC(=O)[C@H](CO)NC(=O)[C@@H](N)Cc1c[nH]cn1)[C@@H](C)O)[C@@H](C)O)C(C)C)C(=O)N[C@@H](CC(N)=O)C(=O)N[C@H](C(=O)O)[C@@H](C)O [Compound 62] | 680 µg/mL (≈ 195 µM) | 2.7 | 53 nM
CCCC[C@H](NC(=O)[C@H](CC(C)C)NC(=O)[C@H](Cc1c[nH]c2ccccc12)NC(=O)[C@H](CCC(N)=O)NC(=O)NC[C@@H](NC(=O)[C@H](Cc1ccccc1)NC(=O)[C@H](CC(=O)O)NC(=O)[C@H](CCC(N)=O)NC(=O)[C@H](C)NC(=O)[C@H](CCCNC(=N)N)NC(=O)[C@H](CCCNC(=N)N)NC(=O)[C@H](CO)NC(=O)[C@H](CC(=O)O)NC(=O)[C@H](CC(C)C)NC(=O)[C@H](Cc1ccc(O)cc1)NC(=O)[C@H](CCCCN)NC(=O)[C@H](CO)NC(=O)[C@H](Cc1ccc(O)cc1)NC(=O)[C@H](CC(=O)O)NC(=O)[C@H](CO)NC(=O)[C@@H](NC(=O)[C@H](Cc1ccccc1)NC(=O)[C@@H](NC(=O)CNC(=O)[C@H](CCC(N)=O)NC(=O)[C@H](CO)NC(=O)[C@@H](N)Cc1c[nH]cn1)[C@@H](C)O)[C@@H](C)O)C(C)C)C(=O)N[C@@H](CC(N)=O)C(=O)N[C@H](C(=O)O)[C@@H](C)O [Compound 63] | 1280 µg/mL (≈ 366 µM) | 5.1 | 30 nM
CCCC[C@H](NC(=O)[C@H](CC(C)C)NC(=O)[C@H](Cc1c[nH]c2ccccc12)NC(=O)NC[C@H](CCC(N)=O)NC(=O)[C@@H](NC(=O)[C@H](Cc1ccccc1)NC(=O)[C@H](CC(=O)O)NC(=O)[C@H](CCC(N)=O)NC(=O)[C@H](C)NC(=O)[C@H](CCCNC(=N)N)NC(=O)[C@H](CCCNC(=N)N)NC(=O)[C@H](CO)NC(=O)[C@H](CC(=O)O)NC(=O)[C@H](CC(C)C)NC(=O)[C@H](Cc1ccc(O)cc1)NC(=O)[C@H](CCCCN)NC(=O)[C@H](CO)NC(=O)[C@H](Cc1ccc(O)cc1)NC(=O)[C@H](CC(=O)O)NC(=O)[C@H](CO)NC(=O)[C@@H](NC(=O)[C@H](Cc1ccccc1)NC(=O)[C@@H](NC(=O)CNC(=O)[C@H](CCC(N)=O)NC(=O)[C@H](CO)NC(=O)[C@@H](N)Cc1c[nH]cn1)[C@@H](C)O)[C@@H](C)O)C(C)C)C(=O)N[C@@H](CC(N)=O)C(=O)N[C@H](C(=O)O)[C@@H](C)O [Compound 64] | 940 µg/mL (≈ 269 µM) | 3.7 | 0.16 nM
CCCC[C@H](NC(=O)[C@H](CC(C)C)NC(=O)NC[C@H](Cc1c[nH]c2ccccc12)NC(=O)[C@H](CCC(N)=O)NC(=O)[C@@H](NC(=O)[C@H](Cc1ccccc1)NC(=O)[C@H](CC(=O)O)NC(=O)[C@H](CCC(N)=O)NC(=O)[C@H](C)NC(=O)[C@H](CCCNC(=N)N)NC(=O)[C@H](CCCNC(=N)N)NC(=O)[C@H](CO)NC(=O)[C@H](CC(=O)O)NC(=O)[C@H](CC(C)C)NC(=O)[C@H](Cc1ccc(O)cc1)NC(=O)[C@H](CCCCN)NC(=O)[C@H](CO)NC(=O)[C@H](Cc1ccc(O)cc1)NC(=O)[C@H](CC(=O)O)NC(=O)[C@H](CO)NC(=O)[C@@H](NC(=O)[C@H](Cc1ccccc1)NC(=O)[C@@H](NC(=O)CNC(=O)[C@H](CCC(N)=O)NC(=O)[C@H](CO)NC(=O)[C@@H](N)Cc1c[nH]cn1)[C@@H](C)O)[C@@H](C)O)C(C)C)C(=O)N[C@@H](CC(N)=O)C(=O)N[C@H](C(=O)O)[C@@H](C)O [Compound 65] | 850 µg/mL (≈ 243 µM) | 3.4 | 1.5 nM
